20 compounds from patent publication US20090105292A9, “Glucocorticoid Receptor Modulator Compounds and Methods” (LIGAND PHARMACEUTICALS INCORPORATED, priority 2004, published 2009) can be followed below.

SMILES strings stand for the structures.

The target in one experiment is T1, human glucocorticoid receptor protein (GR) (Homo sapiens, UniProt P04150).
T1 construct: made in house; host or cells: Spodoptera frugiperda Sf21 insect cells (baculovirus)
T1 sequence (P04150 1-777): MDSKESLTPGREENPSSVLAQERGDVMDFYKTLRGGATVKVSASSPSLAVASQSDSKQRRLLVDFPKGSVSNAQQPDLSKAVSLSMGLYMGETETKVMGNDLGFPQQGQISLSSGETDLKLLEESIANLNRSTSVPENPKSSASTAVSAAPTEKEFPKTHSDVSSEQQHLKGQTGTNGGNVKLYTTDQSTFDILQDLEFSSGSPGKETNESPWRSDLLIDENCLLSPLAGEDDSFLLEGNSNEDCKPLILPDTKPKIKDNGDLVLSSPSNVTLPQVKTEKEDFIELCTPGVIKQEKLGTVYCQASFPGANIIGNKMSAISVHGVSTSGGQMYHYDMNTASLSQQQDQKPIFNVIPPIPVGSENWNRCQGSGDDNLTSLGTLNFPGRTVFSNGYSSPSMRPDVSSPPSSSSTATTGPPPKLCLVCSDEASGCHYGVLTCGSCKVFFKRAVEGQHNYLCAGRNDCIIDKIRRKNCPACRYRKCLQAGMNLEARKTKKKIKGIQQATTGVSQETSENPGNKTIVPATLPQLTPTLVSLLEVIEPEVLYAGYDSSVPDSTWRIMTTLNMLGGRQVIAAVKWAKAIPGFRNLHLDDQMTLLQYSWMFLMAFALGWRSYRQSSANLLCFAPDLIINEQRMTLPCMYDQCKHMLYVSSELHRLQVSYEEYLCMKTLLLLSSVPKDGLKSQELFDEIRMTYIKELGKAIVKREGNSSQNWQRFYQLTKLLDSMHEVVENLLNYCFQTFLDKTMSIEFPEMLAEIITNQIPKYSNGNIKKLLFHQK
Briefly: Glucocorticoid receptor binding assay ([3H]dexamethasone competition, GR lysate).
Conditions: not given
On the procedure:
A baculovirus expression plasmid containing cDNA encoding the human glucocorticoid receptor protein (GR) was prepared using standard techniques. […] That expression plasmid was co-transfected together with wild type Autographa californica multiple nuclear polyhedrosis virus DNA into Spodopter frugiperda-21 (Sf-21) cells to generate recombinant virus containing GR cDNA. See e.g., O'Reilly, D. R., Miller, L. K., Luckow, V. A., Regulation of expression of a baculovirus ecdysteroid UDP glucosyltransferase gene. […] That recombinant virus containing GR cDNA was collected.
A suspension culture of uninfected Sf21 cells was grown to a density of 1.2×10^6 cells/ml and then infected with the recombinant virus containing GR cDNA at a multiplicity of infection of 2. Those infected Sf21 cells were incubated for 48 hours and then collected by centrifugation at 1000×g for 10 minutes at 4° C. The resulting cell pellets were resuspended in lysis buffer (50 mM Potassium Phosphate buffer, pH 7.0, 10 mM Monothioglycerol, 5 mM DTT, 20 mM Sodium Molybdate, 1 mM PMSF, 1 μg/mL aprotinin, and 10 μg/mL leupeptin) and incubated for 15 minutes on ice. Those resuspended cell pellets were homogenized using a Dounce homogenizer and a B pestle. A volume of 2 M KCl was added to the homogenized cell pellets to a final concentration of 0.4 M. The resulting GR lysates were centrifuged at 100,000×g for 60 min at 4° C. and stored for use in binding assays.
Binding assay samples were prepared in separate mini-tubes in a 96-well format at 4° C. Each binding assay sample was prepared in a volume of 250 μL of Assay Buffer (10% glycerol, 25 mM sodium phosphate, 10 mM potassium fluoride, 10 mM sodium molybdate, 0.25 mM CHAPS, 2 mM DTT and 1 mM EDTA, (adjusted to pH 7.5)) containing 50 μg of GR lysate; 2-4 nM of [^3H]dexamethasone at 84 Ci/mmol; and either a reference compound or a test compound. […] Each reference compound and test compound was assayed at varying concentrations, ranging from 0 to 10^−5 M. Each concentration of each reference compound and each test compound was assayed in triplicate. The assay samples were incubated for 16 hours at 4° C.
The assay samples were then centrifuged and the supernatants were discarded. The resulting pellets were washed twice with assay buffer lacking DTT. Radioactivity in counts per minute (CPM) of each washed pellet was determined by liquid scintillation counter (MicroBeta™, Wallach).
Specific binding for a particular sample was calculated using the equation: (Sample CPM)−(Average Non-specific CPM)
Average Non-specific CPM was defined as the amount of radioactivity from samples containing an excess (i.e. 1000 nM) of unlabeled dexamethasone. […] Ki values were determined using the Cheng-Prusoff equation using a previously determined Kd value for dexamethasone: Ki=IC50/(1+[L]/Kd)
[L]=concentration of labeled dexamethasone
Kd=dissociation constant of labeled dexamethasone
Broadly, the Ki is the dissociation constant of the complex between target and ligand, obtained from inhibition or displacement. In turn, `COc1c(O)ccc2c1-c1ccc3c(c1/C(=C/c1cccc(C(F)(F)F)c1)O2)C(C)=CC(C)(C)N3` [Compound 11, (Z)-5-(3′-trifluoromethylbenzylidene)-1,2-dihydro-9-hydroxy-10-methoxy-2,2,4-trimethyl-5H-chromeno[3,4-f]quinoline] came in with a Ki of 1 to 2 nM.
In the case of `COc1c(O)ccc2c1-c1ccc3c(c1/C(=C/c1ccccc1F)O2)C(C)=CC(C)(C)N3` [Compound 12, (Z)-5-(2′-fluorobenzylidene)-1,2-dihydro-9-hydroxy-10-methoxy-2,2,4-trimethyl-5H-chromeno[3,4-f]quinoline], the inhibition constant Ki was less than 1 nM.
Turning to `COc1c(O)ccc2c1-c1ccc3c(c1/C(=C/c1cccc(OC(F)(F)F)c1)O2)C(C)=CC(C)(C)N3` [Compound 22, (Z)-5-(3′-trifluoromethoxybenzylidene)-1,2-dihydro-9-hydroxy-10-methoxy-2,2,4-trimethyl-5H-chromeno[3,4-f]quinoline], the Ki is greater than 3 nM.

The experiment is the same for the next values; noted with them: competition with 2-4 nM [3H]dexamethasone, 16 hours at 4° C., Cheng-Prusoff; read-out: Ki.
`COc1c(O)ccc2c1-c1ccc3c(c1/C(=C/c1sccc1C(C)O)O2)C(C)=CC(C)(C)N3` (racemic) [Compound 171, (±)-(Z)-5-(2′-(3′-(1″-Hydroxyethyl)thienylmethylidene))1,2-dihydro-9-hydroxy-10-methoxy-2,2,4-trimethyl-5H-chromeno[3,4-f]quinoline]: the Ki is 1 to 2 nM.
For the compound `COc1c(O)ccc2c1-c1ccc3c(c1/C(=C/c1sccc1C(O)C(F)(F)F)O2)C(C)=CC(C)(C)N3` (racemic) [Compound 202, (±)-(Z)-5-(2′-(3′-(1″-Hydroxy-2″,2″,2″-trifluoroethyl)thienylmethylidene))1,2-dihydro-9-hydroxy-10-methoxy-2,2,4-trimethyl-5H-chromeno[3,4-f]quinoline], the Ki fell in the range of 1 to 2 nM.
With `C=CCC(O)c1ccsc1C=C1Oc2ccc(O)c(OC)c2-c2ccc3c(c21)C(C)=CC(C)(C)N3` (single isomer, unassigned; (+)) [Compound 200, (+)-(Z)-5-(2′-(3′-(1″-Hydroxybut-3″-enyl)thienylmethylidene))1,2-dihydro-9-hydroxy-10-methoxy-2,2,4-trimethyl-5H-chromeno[3,4-f]quinoline], the Ki lay in the range of 1 to 2 nM.
Take `C=CCC(O)c1ccsc1C=C1Oc2ccc(O)c(OC)c2-c2ccc3c(c21)C(C)=CC(C)(C)N3` (single isomer, unassigned; (-)) [Compound 201, (−)-(Z)-5-(2′-(3′-(1″-Hydroxybut-3″-enyl)thienylmethylidene))1,2-dihydro-9-hydroxy-10-methoxy-2,2,4-trimethyl-5H-chromeno[3,4-f]quinoline]: the Ki is 1 to 2 nM.
Take `COc1c(O)ccc2c1-c1ccc3c(c1/C(=C/c1cc(Cl)ccc1Cl)O2)C(C)=CC(C)(C)N3` [Compound 14, (Z)-5-(2′,5′-dichlorobenzylidene)-1,2-dihydro-9-hydroxy-10-methoxy-2,2,4-trimethyl-5H-chromeno[3,4-f]quinoline]: the Ki was 2 to 3 nM.
As to `COc1cccc(/C=C2\Oc3ccc(O)c(OC)c3-c3ccc4c(c32)C(C)=CC(C)(C)N4)c1` [Compound 15, (Z)-5-(3′-methoxybenzylidene)-1,2-dihydro-9-hydroxy-10-methoxy-2,2,4-trimethyl-5H-chromeno[3,4-f]quinoline], the Ki is less than 1 nM.
On the same count and under the same terms, the value for `COc1c(O)ccc2c1-c1ccc3c(c1/C(=C/c1cccc(C(F)(F)F)c1F)O2)C(C)=CC(C)(C)N3` [Compound 29, (Z)-5-(2′-fluoro-3′-trifluoromethylbenzylidene)-1,2-dihydro-9-hydroxy-10-methoxy-2,2,4-trimethyl-5H-chromeno[3,4-f]quinoline] was 2 to 3 nM; that for `COc1c(O)ccc2c1-c1ccc3c(c1/C(=C/c1cc(F)ccc1C)O2)C(C)=CC(C)(C)N3` [Compound 37, (Z)-5-(5′-fluoro-2′-methylbenzylidene)-1,2-dihydro-9-hydroxy-10-methoxy-2,2,4-trimethyl-5H-chromeno[3,4-f]quinoline] was less than 1 nM; that for `C=Cc1ccc(/C=C2\Oc3ccc(O)c(OC)c3-c3ccc4c(c32)C(C)=CC(C)(C)N4)cc1` [Compound 63, (Z)-5-(4′-vinylbenzylidene)-1,2-dihydro-9-hydroxy-10-methoxy-2,2,4-trimethyl-5H-chromeno[3,4-f]quinoline] was 1 to 2 nM.
On to `COc1c(O)ccc2c1-c1ccc3c(c1/C(=C/c1ccc4c(c1)OCO4)O2)C(C)=CC(C)(C)N3` [Compound 67, (Z)-5-(3′,4′-methylenedioxybenzylidene)-1,2-dihydro-9-hydroxy-10-methoxy-2,2,4-trimethyl-5H-chromeno[3,4-f]quinoline], for which the Ki was less than 1 nM.
Still for that read-out and setting: the value for `CCN(CC)C(=O)c1ccccc1/C=C1\Oc2ccc(O)c(OC)c2-c2ccc3c(c21)C(C)=CC(C)(C)N3` [Compound 75, (Z)-5-(2′-diethylaminocarbonylbenzylidene)-1,2-dihydro-9-hydroxy-10-methoxy-2,2,4-trimethyl-5H-chromeno[3,4-f]quinoline] was less than 1 nM; that for `COc1c(O)ccc2c1-c1ccc3c(c1/C(=C/c1cccc(OCCF)c1)O2)C(C)=CC(C)(C)N3` [Compound 86, (Z)-5-(3′-(2″-fluoroethoxy)benzylidene)-1,2-dihydro-9-hydroxy-10-methoxy-2,2,4-trimethyl-5H-chromeno[3,4-f]quinoline] was 1 to 2 nM.
`COc1c(O)ccc2c1-c1ccc3c(c1/C(=C/c1ccccc1C(=O)N1CCCC1)O2)C(C)=CC(C)(C)N3` [Compound 90, (Z)-5-(2′-(pyrrolidinecarbonyl)benzylidene)-1,2-dihydro-9-hydroxy-10-methoxy-2,2,4-trimethyl-5H-chromeno[3,4-f]quinoline]: the Ki was less than 1 nM.
Take `COc1c(O)ccc2c1-c1ccc3c(c1/C(=C/c1ccc(F)cc1S(=O)(=O)N(C)C)O2)C(C)=CC(C)(C)N3` [Compound 103, (Z)-5-(2′-dimethylaminosulphonyl-4′-fluorobenzylidene)-1,2-dihydro-9-hydroxy-10-methoxy-2,2,4-trimethyl-5H-chromeno[3,4-f]quinoline]: the inhibition constant (Ki) is 1 to 2 nM.
Take `COc1c(O)ccc2c1-c1ccc3c(c1/C(=C/c1ccccc1C#N)O2)C(C)=CC(C)(C)N3` [Compound 107, (Z)-5-(2′-cyanobenzylidene)-1,2-dihydro-9-hydroxy-10-methoxy-2,2,4-trimethyl-5H-chromeno[3,4-f]quinoline]: the Ki is less than 1 nM.
On to `COc1c(O)ccc2c1-c1ccc3c(c1/C(=C/c1cccc4ccccc14)O2)C(C)=CC(C)(C)N3` [Compound 111, (Z)-5-(1′-naphthylmethylidene)-1,2-dihydro-9-hydroxy-10-methoxy-2,2,4-trimethyl-5H-chromeno[3,4-f]quinoline], for which the Ki is greater than 3 nM.
Consider `COc1c(O)ccc2c1-c1ccc3c(c1/C(=C/c1sccc1C(=O)N(C)C)O2)C(C)=CC(C)(C)N3` [Compound 132, (Z)-5-(2′-(3′-(dimethylaminocarbonyl)thienylmethylidene))-1,2-dihydro-9-hydroxy-10-methoxy-2,2,4-trimethyl-5H-chromeno[3,4-f]quinoline], for which the Ki was 1 to 2 nM.
